# Molecular target: HCV NS3 protease (UniProt P26663)
# Type: biochemical, HCV genotype 1b
# Parameters: rows headed: IC50 (μM); IC50 (μM)
# Details: Table 3
# Protocol: Recombinant HCV NS3 Protease/NS4A Cofactor Peptide Radiometric Assay
# The enzyme was cloned, expressed and prepared according to the protocol described in Example 36. The enzyme was stored at −80° C., thawed on ice and diluted just prior to use in the assay buffer containing the NS4A cofactor peptide.
# The substrate used for the NS3 protease/NS4A cofactor peptide radiometric assay, DDIVPC-SMSYTW, is cleaved between the cysteine and the serine residues by the enzyme. The sequence DDIVPC-SMSYTW corresponds to the NS5A/NS5B natural cleavage site in which the cysteine residue in P2 has been substituted for a proline. […] (molar ratio enzyme:cofactor 1:100) in the absence or presence of inhibitors. The separation of substrate from products is performed by adding avidin-coated agarose beads to the assay mixture followed by filtration. The amount of SMS[^125I-Y]TW product found in the filtrate allows for the calculation of the percentage of substrate conversion and of the percentage of inhibition.
# The enzymatic reaction was initiated by the addition of the enzyme/NS4A peptide solution and the assay mixture was incubated for 40 min at 23° C. under gentle agitation. Ten (10) μL of 0.5N NaOH were added and 10 μL 1 M MES, pH 5.8 were added to quench the enzymatic reaction.
# A non-linear curve fit with the Hill model was applied to the inhibition-concentration data, and the 50% effective concentration (IC50) was calculated by the use of SAS software (Statistical Software System; SAS Institute, Inc. Cary, N.C.). […]
# The NS2-NS5B-3′ non coding region was cloned by RT-PCR into the pCR®3 vector (Invitrogen) using RNA extracted from the serum of an HCV genotype 1b infected individual (provided by Dr. Bernard Willems, Hôpital St-Luc, Montréal, Québec, Canada). The NS3-NS4A DNA region was then subcloned by PCR into the pFastBac™ HTa baculovirus expression vector (Gibco/BRL). The vector sequence includes a region encoding a 28-residue N-terminal sequence which contains a hexahistidine tag. The Bac-to-Bac™ baculovirus expression system (Gibco/BRL) was used to produce the recombinant baculovirus. The full length mature NS3 and NS4A heterodimer protein (His-NS3-NS4AFL) was expressed by infecting 10^6 Sf21 cells/mL with the recombinant baculovirus at a multiplicity of infection of 0.1-0.2 at 27° C. The infected culture was harvested 48 to 64 h later by centrifugation at 4° C. The cell pellet was homogenized in 50 mM NaPO4, pH 7.5, 40% glycerol (w/v), 2 mM β-mercaptoethanol, in presence of a cocktail of protease inhibitors. His-NS3-NS4AFL was then extracted from the cell lysate with 1.5% NP-40, 0.5% Triton X-100, 0.5M NaCl, and a DNase treatment. After ultracentrifugation, the soluble extract was diluted 4-fold and bound on a Pharmacia Hi-Trap Ni-chelating column. […] The His-NS3-NS4AFL was stored at −80° C. in 50 mM sodium phosphate, pH 7.5, 10% (w/v) glycerol, 0.5 M NaCl, 0.25 M imidazole, 0.1% NP-40. It was thawed on ice and diluted just prior to use. The protease activity of His-NS3-NS4AFL was assayed in 50 mM Tris-HCl, pH 8.0, 0.25 M sodium citrate, 0.01% (w/v) n-dodecyl-β-D-maltoside, 1 mM TCEP. Five (5) μM of the internally quenched substrate anthranilyl-DDIVPAbu[C(O)—O]-AMY(3-NO2)TW-OH in presence of various concentrations of inhibitor were incubated with 1.5 nM of His-NS3-NS4AFL for 45 min at 23° C. […] The reaction was terminated with the addition of 1M MES, pH 5.8. Fluorescence of the N-terminal product was monitored on a Perkin-Elmer LS-50B fluorometer equipped with a 96-well plate reader (excitation wavelength: 325 nm; emission wavelength: 423 nm).
# The following tables list compounds representative of the invention.
# HCV NS3 protease, sequence (P26663 1027-1206, other chains not shown): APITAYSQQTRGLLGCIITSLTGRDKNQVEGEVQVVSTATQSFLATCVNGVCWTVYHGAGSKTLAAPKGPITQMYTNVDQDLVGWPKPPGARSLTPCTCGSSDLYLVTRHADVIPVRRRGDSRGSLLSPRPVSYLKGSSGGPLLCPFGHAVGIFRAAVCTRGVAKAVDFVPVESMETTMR
row,SMILES,IC50
1,CCC1CC1(NC(=O)C1CC(OCc2cccc3ccccc23)CN1C(=O)C(NC(=O)OC(C)(C)C)C1CCCCC1)C(=O)O (centres unmarked) [compound 301],7700 nM
2,CC[C@H]1C[C@]1(NC(=O)[C@@H]1C[C@@H](OCc2cccc3ccccc23)CN1C(=O)[C@@H](NC(=O)OCC(C)C)C(C)C)C(=O)O [compound 302],12500 nM
3,CC[C@H]1C[C@]1(NC(=O)[C@@H]1C[C@@H](OCc2cccc3ccccc23)CN1C(=O)[C@@H](NC(=O)OCC(C)C)C1CCCCC1)C(=O)O [compound 303],11000 nM
4,C=C[C@H]1C[C@]1(NC(=O)[C@@H]1C[C@@H](OCc2cccc3ccccc23)CN1C(=O)[C@@H](NC(=O)OC(C)(C)C)C1CCCCC1)C(=O)O [compound 305],3200 nM
5,C=C[C@H]1C[C@]1(NC(=O)[C@@H]1C[C@@H](Oc2ccnc3ccccc23)CN1C(=O)[C@@H](NC(=O)OC(C)(C)C)C1CCCCC1)C(=O)O [compound 306],800 nM
6,C=C[C@H]1C[C@]1(NC(=O)[C@@H]1CC(Oc2cc(-c3ccccc3)nc3ccc([N+](=O)[O-])cc23)CN1C(=O)[C@@H](NC(=O)OC(C)(C)C)C1CCCCC1)C(=O)O (some centres unmarked) [compound 307],270 nM
7,C=C[C@H]1C[C@]1(NC(=O)[C@@H]1C[C@@H](Oc2cccc3ccccc23)CN1C(=O)[C@@H](NC(=O)OC(C)(C)C)C1CCCCC1)C(=O)O [compound 308],1600 nM
8,C=C[C@H]1C[C@]1(NC(=O)[C@@H]1C[C@@H](Oc2ccc3ccccc3c2)CN1C(=O)[C@@H](NC(=O)OC(C)(C)C)C1CCCCC1)C(=O)O [compound 309],5000 nM

# Same assay, conditions: Table 4
row,SMILES,IC50
1,COc1ccc2c(OC3C[C@@H](C(=O)NC4(C(=O)O)CCC4)N(C(=O)[C@@H](NC(=O)OC(C)(C)C)C(C)(C)C)C3)cc(-c3ccccc3)nc2c1 (some centres unmarked) [compound 403],132 nM

# Same assay, conditions: Table 5
row,SMILES,IC50
1,C=CC1C[C@]1(NC(=O)[C@@H]1C[C@@H](Oc2ccnc3ccccc23)CN1C(=O)[C@@H](NC(=O)OC(C)(C)C)C(C)(C)C)C(=O)O (some centres unmarked) [compound 501],400 nM
2,C=CC1CC1(NC(=O)C1CC(Oc2ccnc3ccccc23)CN1C(=O)C(NC(=O)OC(C)(C)C)C(C)OC(C)(C)C)C(=O)O (centres unmarked) [compound 503],790 nM
3,C=CC1CC1(NC(=O)C1CC(Oc2ccnc3ccccc23)CN1C(=O)C(NC(=O)OC(C)(C)C)C(C)OC)C(=O)O (centres unmarked) [compound 505],790 nM
4,C=CC1CC1(NC(=O)C1CC(Oc2ccnc3ccccc23)CN1C(=O)C(NC(=O)OC(C)(C)C)C(C)OCc1ccccc1)C(=O)O (centres unmarked) [compound 506],1300 nM
5,C=CC1CC1(NC(=O)C1CC(Oc2ccnc3ccccc23)CN1C(=O)C(NC(=O)OC(C)(C)C)C(C)(C)SCNC(C)=O)C(=O)O (centres unmarked) [compound 507],980 nM
6,C=CC1CC1(NC(=O)C1CC(Oc2ccnc3ccccc23)CN1C(=O)C(NC(=O)OC(C)(C)C)C(C)(C)SCc1ccc(C)cc1)C(=O)O (centres unmarked) [compound 508],3100 nM
7,C=CC1CC1(NC(=O)C1CC(Oc2ccnc3ccccc23)CN1C(=O)C(NC(=O)OC(C)(C)C)C(C)CC)C(=O)O (centres unmarked) [compound 509],377 nM
8,C=CC1CC1(NC(=O)C1CC(Oc2ccnc3ccccc23)CN1C(=O)C(NC(=O)OC(C)(C)C)C(C)CC)C(=O)O (centres unmarked) [compound 510],255 nM
9,C=CC1CC1(NC(=O)C1CC(Oc2ccnc3ccccc23)CN1C(=O)C(NC(=O)OC(C)(C)C)C(O)C1CCCCC1)C(=O)O (centres unmarked) [compound 511],2100 nM

# Same assay, conditions: Table 6
row,SMILES,IC50
1,C=CC1CC1(NC(=O)C1CC(Oc2cc(-c3ccccc3)nc3c(OC)c(OC)ccc23)CN1C(=O)C(NC(=O)OC(C)(C)C)C(C)(C)C)C(=O)O (centres unmarked) [compound 602],41 nM
2,C=CC1CC1(NC(=O)C1CC(Oc2cc(-c3ccccc3)nc3cc(CC)ccc23)CN1C(=O)C(NC(=O)OC(C)(C)C)C(C)C)C(=O)O (centres unmarked) [compound 603],195 nM
3,C=CC1CC1(NC(=O)C1CC(Oc2ccnc3cc(OC)ccc23)CN1C(=O)C(NC(=O)OC(C)(C)C)C(C)(C)C)C(=O)O (centres unmarked) [compound 604],73 nM
4,C=CC1CC1(NC(=O)C1CC(Oc2cc(-c3ccccc3)nc3cc(OC(C)C)ccc23)CN1C(=O)C(NC(=O)OC(C)(C)C)C(C)(C)C)C(=O)O (centres unmarked) [compound 605],195 nM
5,C=CC1CC1(NC(=O)C1CC(Oc2ccnc3cc(Cl)ccc23)CN1C(=O)C(NC(=O)OC(C)(C)C)C(C)(C)C)C(=O)O (centres unmarked) [compound 606],480 nM
6,C=CC1CC1(NC(=O)C1CC(Oc2ccnc3cc(Cl)ccc23)CN1C(=O)C(NC(=O)OC(C)(C)C)C(C)C)C(=O)O (centres unmarked) [compound 607],450 nM
7,C=CC1CC1(NC(=O)C1CC(Oc2ccnc3cc(Cl)ccc23)CN1C(=O)C(CC(C)C)NC(=O)OC(C)(C)C)C(=O)O (centres unmarked) [compound 608],1450 nM
8,C=CC1CC1(NC(=O)C1CC(Oc2cc(CN3CCOCC3)nc3ccccc23)CN1C(=O)C(NC(=O)OC(C)(C)C)C(C)(C)C)C(=O)O (centres unmarked) [compound 609],1700 nM
9,C=CC1CC1(NC(=O)C1CC(Oc2cc(Cl)nc3ccccc23)CN1C(=O)C(NC(=O)OC(C)(C)C)C(C)(C)C)C(=O)O (centres unmarked) [compound 610],250 nM
10,C=CC1CC1(NC(=O)C1CC(Oc2cc(-c3ccccc3)nc3cc(N(C)C)ccc23)CN1C(=O)C(NC(=O)OC(C)(C)C)C(C)(C)C)C(=O)O (centres unmarked) [compound 611],35 nM
11,C=CC1CC1(NC(=O)C1CC(Oc2cc(N3CCOCC3)nc3ccccc23)CN1C(=O)C(NC(=O)OC(C)(C)C)C(C)(C)C)C(=O)O (centres unmarked) [compound 612],278 nM
12,C=CC1CC1(NC(=O)C1CC(Oc2cc(N3CCCC3)nc3ccccc23)CN1C(=O)C(NC(=O)OC(C)(C)C)C(C)(C)C)C(=O)O (centres unmarked) [compound 613],1000 nM
13,C=CC1CC1(NC(=O)C1CC(Oc2cc(CN3CCCC3)nc3ccccc23)CN1C(=O)C(NC(=O)OC(C)(C)C)C(C)(C)C)C(=O)O (centres unmarked) [compound 614],2200 nM
14,C=CC1CC1(NC(=O)C1CC(Oc2ccnc3cc(N(C)C)ccc23)CN1C(=O)C(NC(=O)OC(C)(C)C)C(C)(C)C)C(=O)O (centres unmarked) [compound 615],160 nM
15,C=CC1CC1(NC(=O)C1CC(Oc2cc(N3CCCCC3)nc3ccccc23)CN1C(=O)C(NC(=O)OC(C)(C)C)C(C)(C)C)C(=O)O (centres unmarked) [compound 617],345 nM
16,C=CC1CC1(NC(=O)C1CC(Oc2cc(CN(C)C)nc3ccccc23)CN1C(=O)C(NC(=O)OC(C)(C)C)C(C)(C)C)C(=O)O (centres unmarked) [compound 618],2300 nM
17,C=CC1CC1(NC(=O)C1CC(Oc2cc(-c3csc(C)n3)nc3ccccc23)CN1C(=O)C(NC(=O)OC(C)(C)C)C(C)(C)C)C(=O)O (centres unmarked) [compound 621],58 nM
18,C=CC1CC1(NC(=O)C1CC(Oc2cc(OCC)nc3ccccc23)CN1C(=O)C(NC(=O)OC(C)(C)C)C(C)(C)C)C(=O)O (centres unmarked) [compound 622],160 nM
19,C=CC1CC1(NC(=O)C1CC(Oc2cc(OC)nc3ccccc23)CN1C(=O)C(NC(=O)OC(C)(C)C)C(C)(C)C)C(=O)O (centres unmarked) [compound 623],200 nM
20,C=CC1CC1(NC(=O)C1CC(Oc2cc(N(C)C)nc3ccccc23)CN1C(=O)C(NC(=O)OC(C)(C)C)C(C)(C)C)C(=O)O (centres unmarked) [compound 624],1300 nM
21,C=CC1CC1(NC(=O)C1CC(Oc2cc(-c3ccccc3)nc3cc(SC)ccc23)CN1C(=O)C(NC(=O)OC(C)(C)C)C(C)(C)C)C(=O)O (centres unmarked) [compound 625],160 nM
22,C=CC1CC1(NC(=O)C1CC(Oc2cc(-c3ccccc3)nc3cc(Br)ccc23)CN1C(=O)C(NC(=O)OC(C)(C)C)C(C)(C)C)C(=O)O (centres unmarked) [compound 626],240 nM
23,C=CC1CC1(NC(=O)C1CC(Oc2cc(-c3ccccc3)nc3cc(F)ccc23)CN1C(=O)C(NC(=O)OC(C)(C)C)C(C)(C)C)C(=O)O (centres unmarked) [compound 627],330 nM
